What is called Tmax is the time from dosing to the highest level. As usually defined, the AUC is concentration integrated over time. The term Cmax denotes the highest concentration seen after dosing.

Common to all, as to set-up: dose 10 mg/kg, route oral
Data set [1] relates to Homo sapiens. Put plainly: Tmax in children with uncomplicated malaria assessed as desethylamodiaquine at 10 mg/kg, po administered as single dose. The data set is classed as ADME, organism-based. The note with it: in vivo.
Data set [2] concerns Homo sapiens. Put plainly: AUC in children with uncomplicated malaria assessed as desethylamodiaquine at 10 mg/kg, po administered as single dose. It is filed as ADME, organism-based, Plasma. The conditions noted are these: in vivo.
The subject of data set [3] is Homo sapiens. Put plainly: Cmax in children with uncomplicated malaria assessed as desethylamodiaquine at 10 mg/kg, po administered as single dose. It is filed as ADME, organism-based. The conditions noted are these: in vivo.
Data set [4] deals with Homo sapiens. Put plainly: Toxicity in children with uncomplicated malaria assessed as excessive sleepiness at 10 mg/kg, po administered as single dose. It is filed as organism-based. The conditions noted are these: in vivo.
Data set [5] relates to Homo sapiens. Put plainly: Toxicity in children with uncomplicated malaria assessed as pruritus at 10 mg/kg, po administered as single dose. It is filed as organism-based. The note with it: in vivo.
For data set [6], the system named is Homo sapiens. As to the kind of experiment: Toxicity in children with uncomplicated malaria assessed as bradycardia at 10 mg/kg, po administered as single dose. The data set is classed as organism-based. The conditions noted are these: in vivo.
In another data set the test system is Plasma. As to the kind of experiment: Plasma concentration in children with uncomplicated malaria assessed as desethylamodiaquine at 10 mg/kg, po administered as single dose measured on day 3. The conditions noted are these: human, in vivo. The data set is classed as ADME, organism-based.
Data set [7] has as its system Homo sapiens. As to the kind of experiment: Toxicity in children with uncomplicated malaria assessed as neutropenia at 10 mg/kg, po administered as single dose. The data set is classed as organism-based. The note with it: in vivo.
The test system of data set [8] is Homo sapiens. Put plainly: Toxicity in children with uncomplicated malaria assessed as elevated serum aminotransferase levels at 10 mg/kg, po administered as single dose. The note with it: in vivo. The data set is classed as organism-based.

The structures appear in SMILES notation.

As to `CCN(CC)Cc1cc(Nc2ccnc3cc(Cl)ccc23)ccc1O.Cl`, the Tmax in the data set on Homo sapiens [1] stood at 47.9 h. The AUC with Homo sapiens [2] was 38516 ng·h/mL. For the same compound, the maximum concentration (Cmax) with Homo sapiens [3] was determined as 1185 ng/mL.

`CCNCc1cc(Nc2ccnc3cc(Cl)ccc23)ccc1O` [DESETHYL AMODIAQUINE]: the Activity result in the data set on Homo sapiens [4] is “Toxic”; in the data set with Homo sapiens [5], “Toxic”; with Homo sapiens [6] it was “Toxic”; with Plasma, 156.6 ng/mL; with Homo sapiens [7] it was “Toxic”; in the data set with Homo sapiens [8] it was “Toxic”.
